*1 amine or outer side, *2 acyl side, *3 side chain or, on linkers, in order; H or OH if unused. Where a SMILES comes first, the peptide text is derived from it. Bridges are numbered along the chain shown (N, C = ends). [ ]: non-standard residue; d: D form. NHCH2CMe2S = CC(C)(CN[*:1])S[*:2]
Experiments:
[1] = target: T1, KOP (Homo sapiens, UniProt P41145); test: In vitro cAMP activity at KOP (Table 10); assay type: cell-based; details: cAMP inhibition, four-parameter regression, normalised to U50488H
Experimental: (§1) The CP series compounds were assayed as follows: The assay was performed using a 96 well ½ area plate. The different cAMP standard solutions (3 μL/well) were plated in duplicate. The different concentrations of drug (3 μL/well), and control solutions (3 μL/well) were plated in triplicate. Following this, the acceptor bead mixture (3 μL/well) was added to the respective sets—either cAMP standard curve or the treatment. This was covered and incubated on the orbital shaker for 60 minutes at 37° C. Then, the donor bead mixture (10 μL/well) was added to each well. This was incubated at room temperature overnight on the orbital shaker.
(§2) For DP-11-06 the assay was carried out in the same way as for the CP compounds except it was incubated for 30 mins at 37° C.
(§3) For the CP series compounds and DP-11-06, the Ensight® Multimode Plate Reader was used to quantify the fluorescence units of each plate. Before reading, each plate was centrifuged at 280 g for 30 seconds. Using GraphPad Prism7® Software, cAMP concentrations were determined by fit spline/LOWESS analysis. The cAMP standard curve was used for interpolation at this point. The cAMP concentrations were then normalized to the highest cAMP concentration recorded and analyzed by one-way ANOVA for multiple comparisons. The IC50 for each compound was then calculated using GraphPad Prism7® with non-linear regression analysis using four parameter curve fitting.
(§4) The results shown in Table 10 utilized rat plasma. • Note that DP-7-11 and CP5 represent the same compound, and DP-7-12 and CP6 are the same compound. In this regard, a different regression analysis method was adopted on the above cAMP experiments. Particularly, a new non-linear regression (four-parameter) was adopted to better account for hill slope, thereby improving the regression fit.
Target sequence in this assay (P41145 whole entry): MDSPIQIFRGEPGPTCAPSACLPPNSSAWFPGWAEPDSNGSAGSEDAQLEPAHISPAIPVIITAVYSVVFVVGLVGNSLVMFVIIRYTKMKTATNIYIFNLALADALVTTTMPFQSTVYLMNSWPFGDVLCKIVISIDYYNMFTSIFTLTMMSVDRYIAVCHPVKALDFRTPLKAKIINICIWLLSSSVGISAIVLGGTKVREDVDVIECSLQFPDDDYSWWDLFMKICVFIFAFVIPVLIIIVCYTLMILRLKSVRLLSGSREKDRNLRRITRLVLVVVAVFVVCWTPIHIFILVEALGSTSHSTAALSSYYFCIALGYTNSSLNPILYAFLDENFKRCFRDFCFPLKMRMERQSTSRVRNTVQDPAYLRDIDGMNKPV

[2] = target: DOP (Homo sapiens, UniProt P41143); test: In vitro cAMP activity at DOP (Table 10); assay type: cell-based; details: cAMP inhibition, four-parameter regression
Chain of DOP (P41143 whole entry): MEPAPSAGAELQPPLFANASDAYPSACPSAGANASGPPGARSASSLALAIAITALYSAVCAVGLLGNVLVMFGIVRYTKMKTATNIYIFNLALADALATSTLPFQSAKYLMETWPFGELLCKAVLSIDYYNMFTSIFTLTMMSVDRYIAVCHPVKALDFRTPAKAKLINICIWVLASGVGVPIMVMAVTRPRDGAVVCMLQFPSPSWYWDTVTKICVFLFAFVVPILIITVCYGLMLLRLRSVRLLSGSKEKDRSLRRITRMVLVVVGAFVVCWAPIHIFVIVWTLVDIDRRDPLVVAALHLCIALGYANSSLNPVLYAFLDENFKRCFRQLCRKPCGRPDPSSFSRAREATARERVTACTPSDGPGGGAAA
Experimental: as §1, §2, §3
In this regard, a different regression analysis method was adopted on the above cAMP experiments. Particularly, a new non-linear regression (four-parameter) was adopted to better account for hill slope, thereby improving the regression fit.

[3] = target: T2, trypsin (Bos taurus, UniProt P00760); test: Trypsin stability; assay type: in vitro ADME
T2 sequence (P00760 24-246): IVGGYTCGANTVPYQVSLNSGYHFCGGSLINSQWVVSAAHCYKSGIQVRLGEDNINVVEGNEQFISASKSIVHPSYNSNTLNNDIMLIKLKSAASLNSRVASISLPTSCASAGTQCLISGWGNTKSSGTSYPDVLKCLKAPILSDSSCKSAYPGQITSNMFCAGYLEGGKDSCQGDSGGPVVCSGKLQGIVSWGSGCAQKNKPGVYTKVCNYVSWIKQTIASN
Experimental: Purified DP-7-11 (1 mg/mL) was dissolved in 0.1 M ammonium bicarbonate (NH4HCO3) buffer. To prepare a stock trypsin solution, 1 mg trypsin was dissolved in 50 mL of 0.1 M NH4HCO3 buffer. Equal volumes of the stock trypsin solution (62.5 μL) and DP-7-11 solution (62.5 μL) were incubated in 375 μL of 0.1M NH4HCO3 buffer in a 37° C. water bath. Aliquots of 100 μL were collected from this mixture at set time intervals of 0 min, up to 24 hours. Ice-cold acetonitrile containing 0.5% TFA was used to quench the reaction between DP-7-11 and trypsin at predetermined intervals, and just prior to HPLC or LC-MS analysis. The quenched samples were vortexed for 10 minutes followed by centrifugation at 12,000 rpm for a further 15 minutes. Supernatant was sampled and analysed using analytical RP-HPLC or LC-MS. Samples without trypsin acted as negative controls and were sampled at two intervals of 0 hour and 6 hours.
As used in this serum and trypsin stability discussion, the term ‘degraded completely’ relates to the relevant compound being completely absent when tested. In other words, the compound being tested is not observed when tested.
The serum and trypsin stability of DP-7-11 and DP-7-12 were tested (in some instances again) using LC-MS. The LC-MS utilized in this study was more sensitive than the LC-MS utilized in the above tests.

[4] = Plasma stability assay (Table 10); assay type: in vitro ADME; details: both sexes, Wistar, rat plasma (EDTA), 37° C., 100 uM peptide, One Phase Decay, read-out: Stability (t1/2, mins) Plasma
Text: FIG. 20 is a series of graphs showing the stability of selected peptides in a trypsin (left-hand graphs) and plasma (right-hand graphs) stability assay (data normalised to concentration of each peptide at t=0, determined by LCMS, within each substrate; data analysed using One Phase Decay nonlinear regression in Prism software and each experiment performed in triplicate; mean+/−SEM);
as §4
Plasma was collected in house from adult mixed-gender Wistar rats, prepared using 2% EDTA as per standard practice. Peptides were added to rat plasma samples at 37° C. (in a water bath) with final concentrations of 100 uM (1:9 peptide in water:plasma) and a 50 μL sample was immediately taken and precipitated in 150 μL cold acetonitrile (9:1 ACN:water). This sample became the baseline, or t=0 min sample. Plasma with peptide was immediately returned to the water bath and subsequent 50 μL samples were taken at 5, 10, 15, 30, 60 and 120 min. At each time point, the 50 μL of plasma collected was immediately added to cold ACN. Each collected plasma sample in ACN was directly vortexed for 30 seconds and then centrifuged at room temperature (13K rpm, 5 min). 150 μL of the supernatant was taken and directly placed in glass HPLC vials for LCMS analysis.

[5] = target: T1, KOP; test: Statistics for each peptide | IC50 (nM)
Experimental: Table printed on a drawing sheet, FIG 12
Head of the field: Statistics for each peptide | IC50 (nM)
First copying reader's note: The table stands under a forest plot whose axis is labelled 'Mean IC50 ± 95% CI (nM)'; according to the description the IC50 values were measured in HEK-KOP cells.
Target sequence in this assay (P41145 whole entry, looked up): as the sequence (P41145 whole entry) above

[6] = Stability in cAMP buffer; assay type: physicochemical; details: over 60 minutes
Text: Select compounds were also screened for stability in cAMP buffer, to assess whether they degrade spontaneously in the cell assay environment, in the absence of cellular metabolic processes.

CC1(C)CNC(=O)C[C@H](C(=O)N[C@@H](CCCNC(=N)N)C(=O)N[C@@H](CCCNC(=N)N)C(N)=O)NC(=O)[C@H](Cc2ccccc2)NC(=O)CNC(=O)[C@@H](NC(=O)[C@@H](N)Cc2ccc(O)cc2)CSS1 [DP-7-11, c(Tyr-SSa-Gly-Phe-D(Asp)-Arg-Arg)]
EC50 [1]: > 10000 nM
EC50 [2]: > 10000 nM
Incubation in trypsin: peptide remaining ([3]; at 30 min, more sensitive LC-MS): 25% remaining at
remaining at 0.5 h, 0.125 mg/mL ([3]; trypsin solution, at 30 min, more sensitive LC-MS, read-out: Incubation in trypsin: peptide remaining): ~25%

CC1(C)CNC(=O)C[C@@H](NC(=O)[C@@H](N)Cc2ccc(O)cc2)C(=O)NCC(=O)N[C@@H](Cc2ccccc2)C(=O)N[C@H](C(=O)N[C@@H](CCCNC(=N)N)C(=O)N[C@@H](CCCNC(=N)N)C(N)=O)CSS1 [DP-7-12, c(Tyr-D(Asp)-Gly-Phe-SSa-Arg-Arg)] (H-Y[dD]GFCRR-NH2; linker 2-5 via NHCH2CMe2S)
half-life at 100 uM [4]: 206 min
EC50 [1]: 160 nM
IC50 [5]: 4.49 ± 1.59 nM
Degradation in cAMP assay buffer [6]: no degradation
Trypsin: complete degradation within ([3]; 37° C.): within 30 min
